Legend:
[1] = tested on: peripheral blood lymphocytes; assay: Breast cancer patients after radiotherapy treated with L-Glu-L-Trp 100 μg im daily; type: in vivo, human
Method: Thirty six patients with breast cancer were treated with conventional radiation therapy (i.e., single doses of about 2-3 Gy daily for 10 days; total cumulative patient dose of 20-30 Gy). Following radiotherapy the patients were treated with L-Glu-L-Trp by injection of daily dosages im of 100 μg. The patients had been previously treated with radiation therapy (single doses 2 Gy; total dose 20-30 Gy).

[2] = Complications of pregnancy: toxemia (Protocol B); parameters: species or system human; settings: in vivo
Method: L-Glu-L-Trp was administered im at 100 μg daily, or 1 μg/kg intranasally, for 5-10 days.

[3] = Burns; parameters: species or system human; settings: in vivo
Method: A total of 23 patients with cutaneous burns were treated with L-Glu-L-Trp either im or intranasally. Fourteen patients in a control group were treated using conventional methods.

[4] = tested on: upper respiratory infections; assay: Prophylaxis of respiratory infections in polar explorers; type: in vivo, human; settings: intranasal 1 μg/kg, 3 days
[5] = Lymphatic infections (lymphangitis); type: in vivo; settings: 100 μg im, 1 μg/kg intranasally or intralymphatically
[6] = Patients after radiation and chemotherapy, L-Glu-L-Trp 100 μg daily 10 days; settings: human, in vivo
Method: A total of 246 patients were eventually entered into studies after receiving radiation and chemotherapy. L-Glu-L-Trp was administered to the patients in single 100 μg daily dose for each of 10 days during the period of chemotherapy. A control group constituted 158 similar patients (following radiation and chemotherapy), and these patients were treated in a conventional manner (i.e., chemotherapy and support therapy). […] Immune parameters were periodically monitored over the next 4-6 months in the patients and decreased levels of lymphocytes or their subpopulations were used as clinical triggers for additional therapeutic intervention with L-Glu-L-Trp.

[7] = tested on: Plasmodium falciparum; assay: Relapsing tropical malaria; type: in vivo, human; parameters: IgG / IgA / IgM: unit not given here
[8] = tested on: Staphylococci; assay: Chronic staphylococcal pyoderma, overview (Protocol A); parameters: species or system human; settings: in vivo
Method: The total clinical trial population eventually under examination consisted of 159 patients with pyoderma, including furunculitis, cellulitis, and folliculitis. Trial Protocol A1, below, details some of the results obtained in this trial. Medications were administered either im or intranasally for 5 consecutive days. Peripheral blood immune indices were decreased prior to treatment and following treatment with L-Glu-L-Trp were restored to within the normal range. […] Clinical improvement was correlated with return of the immune parameters to within the normal range of values. In certain patients, L-Glu-L-Trp was also topically applied as a sterile saline solution of medication for a period of 5 to 10 days at a dosage of 1 μg/kg body weight.

[9] = Corneal diseases; settings: in vivo
[10] = tested on: peripheral blood lymphocytes; assay: Protocol A3 Group 1B: atypical pyoderma; type: in vivo, human
[11] = tested on: Shigella dysenterae; assay: Shigella dysentery; parameters: species or system human; settings: in vivo
Description: A total 125 patients infected with Shigella dysentery were examined. Fifty-three patients constituted the control group.

[12] = Frostbite; parameters: species or system human; settings: in vivo
Method: Seventeen patients with frostbite of the extremities were treated with L-Glu-L-Trp either im or intranasally. Eleven patients constituted a control group.

[13] = malaria, after L-Glu-L-Trp Therapy (n = 33)
[14] = Group 1B atypical pyoderma, after L-Glu-L-Trp Therapy (n = 10)

Substance: L-Glu-L-Trp
- B-lymphocyte (Ig+) [1]: 0.17 ± 0.02 ×10^9/L
- B-lymphocyte (Ig+), Ratio Post-Rad/Pre-Rad Value [1]: (1.1)
- B-lymphocyte (Ig+), Ratio Post-Treat/Pre-Treat Value [1]: (1.55)
- C3-complement [1]: 0.68 ± 0.04 g/L
- DTH to tuberculin [1]: 8.7 ± 0.6 mm
- DTH to tuberculin, Ratio Post-Rad/Pre-Rad Value [1]: (1.2)
- Granulocyte Cation Proteins [1]: 1.49 ± 0.12
- Granulocyte Phagocytic Index [1]: 3.7 ± 0.2
- LMI with ConA [1]: 71 ± 5 %
- Lymphocytes [1]: 1.72 ± 0.21 ×10^9/L
- Lymphocytes, Ratio Post-Rad/Pre-Rad Value [1]: (1.1)
- Lymphocytes, Ratio Post-Treat/Pre-Treat Value [1]: (2.18)
- OKT4+/OKT8+ [1]: 1.86 ± 0.17
- T-Lymphocytes [1]: 0.92 ± 0.12 ×10^9/L
- T-helpers (OKT4+) [1]: 0.39 ± 0.04 ×10^9/L
- T-helpers (OKT4+), Ratio Post-Rad/Pre-Rad Value [1]: (1.3)
- T-helpers (OKT4+), Ratio Post-Treat/Pre-Treat Value [1]: (3.25)
- T-lymphocytes, Ratio Post-Rad/Pre-Rad Value [1]: (1.1)
- T-lymphocytes, Ratio Post-Treat/Pre-Treat Value [1]: (2.88)
- T-suppressors (OKT8+) [1]: 0.21 ± 0.03 ×10^9/L
- T-suppressors (OKT8+), Ratio Post-Rad/Pre-Rad Value [1]: (0.8)
- T-suppressors (OKT8+), Ratio Post-Treat/Pre-Treat Value [1]: (1.31)
- “Active” T-lymphocytes [1]: 0.52 ± 0.07 ×10^9/L
- “Active” T-lymphocytes, Ratio Post-Rad/Pre-Rad Value [1]: (1.1)
- “Active” T-lymphocytes, Ratio Post-Treat/Pre-Treat Value [1]: (2.74)
- Clinical outcome [2]: normalized blood pressure
- Clinical outcome [3]: accelerated rate of wound healing
- Clinical outcome [4]: prevented the occurrence of upper respiratory infections
- Clinical outcome [5]: controls the progression of lymphangitis
- Clinical outcome [6]: decreased incidence and severity of post-operative complications
- Clinical outcome ([7]; in vivo): decreased incidence of disease relapses
- FDP and ATIII levels ([7]; in vivo): the levels of FDP decreased and ATIII increased
- PBL and T- and B-lymphocyte counts ([7]; in vivo): increased PBL and T- and B-lymphocyte counts to normal or supra-normal values
- ATIII (%) [7, 13]: 98 ± 1.38%
- B-Lymphocytes [7, 13]: 0.53 ± 0.02 ×10^9/L
- B-Lymphocytes % Normal Value [7, 13]: (115%)
- Clotting time (whole blood) [7, 13]: 141 ± 2.4^
- FDP [7, 13]: 23 ± 1.8 µg/mL
- Fibrinogen Concentration [7, 13]: 3.4 ± 0.1 g/L
- Hagemann factor dependent fibrinolysis [7, 13]: 25 ± 2.58
- IgA [7, 13]: 138 ± 6.0
- IgA % Normal Value [7, 13]: (140%)
- IgG [7, 13]: 187 ± 1.9
- IgG % Normal Value [7, 13]: (140%)
- IgM [7, 13]: 193 ± 9.0
- IgM % Normal Value [7, 13]: (152%)
- Kaolin clotting time [7, 13]: 58 ± 0.3
- Leukocytes [7, 13]: 9.0 ± 0.14 ×10^9/L
- Leukocytes % Normal Value [7, 13]: (155%)
- Lymphocytes [7, 13]: 2.57 ± 0.09 ×10^9/L
- Lymphocytes % Normal Value [7, 13]: (148%)
- PTT [7, 13]: 23 ± 0.2
- T-Lymphocytes [7, 13]: 0.94 ± 0.06 ×10^9/L
- T-Lymphocytes % Normal Value [7, 13]: (106%)
- Thrombotest [7, 13]: 33 ± 0.5
- Total Fibrinogen [7, 13]: 200 ± 2.7^
- Clinical outcome [8]: disappearance of skin manifestations and resolution of pyoderma
- Clinical outcome [9]: stimulates regeneration of corneal epithelium and restoration of visual acuity
- B-Lymphocytes [10, 14]: 0.14 ± 0 ×10^9/L
- B-Lymphocytes % Normal Value [10, 14]: (29%)
- B-Lymphocytes (%) [10, 14]: 8.5 ± 1%
- Basophils (%) [10, 14]: 0.1 ± 0%
- Eosinophils (%) [10, 14]: 0.5 ± 1%
- Erythrocytes [10, 14]: 4.1 ± 0.1 10^12/L
- IgA [10, 14]: 2.21 ± 0 g/L
- IgA % Normal Value [10, 14]: (117%)
- IgG [10, 14]: 16.6 ± 2 g/L
- IgG % Normal Value [10, 14]: (154%)
- IgM [10, 14]: 1.64 ± 0 g/L
- IgM % Normal Value [10, 14]: (104%)
- Leukocytes [10, 14]: 6.2 ± 1 ×10^9/L
- Leukocytes % Normal Value [10, 14]: (93%)
- Lymphocytes [10, 14]: 2.14 ± 0 ×10^9/L
- Lymphocytes % Normal Value [10, 14]: (76%)
- Lymphocytes, % [10, 14]: 34.5 ± 4%
- Monocytes, % [10, 14]: 2.3 ± 1.6%
- Neutrophils, % [10, 14]: 66.5 ± 3.2%
- T-Lymphocytes [10, 14]: 0.87 ± 0 ×10^9/L
- T-Lymphocytes % Normal Value [10, 14]: (51%)
- T-Lymphocytes (%) [10, 14]: 55.1 ± 6%
- T-helper [10, 14]: 0.53 ± 0 ×10^9/L
- T-helper % Normal Value [10, 14]: (40%)
- T-helper (%) [10, 14]: 32.1 ± 3%
- T-suppressor [10, 14]: 0.49 ± 0 ×10^9/L
- T-suppressor % Normal Value [10, 14]: (126%)
- T-suppressor (%) [10, 14]: 23.1 ± 5%
- Blast Transform., Con-A ([10]; Group 1B, L-Glu-L-Trp Therapy): 96.1 ± 4 % of PBL
- Blast Transform., PHA ([10]; Group 1B, L-Glu-L-Trp Therapy): 87.5 ± 5 % of PBL
- Blast Transform., Staph-A ([10]; Group 1B, L-Glu-L-Trp Therapy): 75.3 ± 1 % of PBL
- Clinical outcome ([10]; in vivo): did not turn out to be effective clinically
- Clinical outcome [11]: normalization of fever, reduction of toxemia
- Clinical outcome [12]: Rapid healing and restoration of tissue integrity
